Experimental data reported in ChEMBL document CHEMBL4665809, “Synthesis and biofilm inhibition studies of 2-(2-amino-6-arylpyrimidin-4-yl)quinazolin-4(3H)-ones” (Bioorg Med Chem Lett, 2020).

Key:
[1] = system: Staphylococcus aureus; experiment: Inhibition of biofilm formation in methicillin-resistant Staphylococcus aureus ATCC 43300 at 100 uM incubated for 24 hrs by crystal violet staining based microtiter plate method; format: functional
[2] = system: Staphylococcus aureus; experiment: Inhibition of biofilm formation in methicillin-resistant Staphylococcus aureus ATCC 43300 incubated for 24 hrs by crystal violet staining based microtiter plate method; format: functional, organism-based; conditions: ATCC 43300, 24 h
[3] = system: Acinetobacter baumannii; experiment: Inhibition of biofilm formation in Acinetobacter baumannii at 100 uM incubated for 24 hrs by crystal violet staining based microtiter plate method; format: functional
[4] = system: CCD-18Co; experiment: Cytotoxicity against human CCD-18Co cells assessed as reduction in cell viability at 50 uM measured after 1 days by MTT assay relative to control; format: cell-based; conditions: 24 h, time 1 day
[5] = system: CCD-18Co; experiment: Cytotoxicity against human CCD-18Co cells assessed as reduction in cell viability at 12.5 uM measured after 1 days by MTT assay relative to control; format: cell-based; conditions: 24 h, time 1 day
[6] = system: CCD-18Co; experiment: Cytotoxicity against human CCD-18Co cells assessed as reduction in cell viability at 25 uM measured after 1 days by MTT assay relative to control; format: cell-based; conditions: 24 h, time 1 day

Compound | inhibition at 100 µM [1] [%] | IC50 [2] [µM] | inhibition at 100 µM [3] [%] | Activity [4] | Activity [5] | Activity [6]
CSc1ccc(-c2cc(-c3nc4ccccc4c(=O)[nH]3)nc(N)n2)cc1 | > 50 | 22.4 | < 25 |  |  | 
Nc1nc(-c2nc3ccccc3c(=O)[nH]2)cc(-c2cccc3ccccc23)n1 |  |  | < 25 |  |  | 
Nc1nc(-c2cccc(OCc3ccccc3)c2)cc(-c2nc3ccccc3c(=O)[nH]2)n1 |  |  | < 25 |  |  | 
COc1cccc(-c2cc(-c3nc4ccccc4c(=O)[nH]3)nc(N)n2)c1 | > 50 | 84.8 | < 25 |  |  | 
Nc1nc(-c2cccc(Br)c2)cc(-c2nc3ccccc3c(=O)[nH]2)n1 | > 50 | 20.7 | < 25 | Toxic | Toxic | 
Nc1nc(-c2ccccc2)cc(-c2nc3ccccc3c(=O)[nH]2)n1 | > 50 | 34.4 | < 25 |  |  | 
COc1ccc(-c2cc(-c3nc4ccccc4c(=O)[nH]3)nc(N)n2)c(OC)c1 | > 50 | 38.4 | < 25 |  |  | 
Nc1nc(-c2nc3ccccc3c(=O)[nH]2)cc(-c2ccc(Cl)cc2Cl)n1 | > 50 | 42.7 | < 25 |  |  | 
Nc1nc(-c2nc3ccccc3c(=O)[nH]2)cc(-c2ccco2)n1 | > 50 | 56.9 | < 25 |  |  | 
COc1cc(OC)cc(-c2cc(-c3nc4ccccc4c(=O)[nH]3)nc(N)n2)c1 | > 50 | 50.5 | < 25 |  |  | 
Nc1nc(-c2ccc(C(F)(F)F)cc2)cc(-c2nc3ccccc3c(=O)[nH]2)n1 | > 50 | 86.5 | < 25 |  |  | 
COc1cc(OC)c(-c2cc(-c3nc4ccccc4c(=O)[nH]3)nc(N)n2)c(OC)c1 | > 50 | 21.2 | < 25 | Non-Toxic | Non-Toxic | Non-Toxic
COc1ccc(-c2cc(-c3nc4ccccc4c(=O)[nH]3)nc(N)n2)cc1OC |  |  | < 25 |  |  | 
Nc1nc(-c2nc3ccccc3c(=O)[nH]2)cc(-c2cccs2)n1 | < 50 | 71 | < 25 |  |  | 
Nc1nc(-c2ccc(F)cc2)cc(-c2nc3ccccc3c(=O)[nH]2)n1 | < 50 |  | < 25 |  |  | 
Nc1nc(-c2nc3ccccc3c(=O)[nH]2)cc(-c2ccccc2Cl)n1 | > 50 | 56.2 | < 25 |  |  | 
Nc1nc(-c2ccncc2)cc(-c2nc3ccccc3c(=O)[nH]2)n1 | < 50 |  | < 25 |  |  | 
COc1cc(-c2cc(-c3nc4ccccc4c(=O)[nH]3)nc(N)n2)cc(OC)c1OC |  |  | < 25 |  |  | 
Nc1nc(-c2ccc(Cl)cc2)cc(-c2nc3ccccc3c(=O)[nH]2)n1 | < 50 |  | < 25 |  |  | 
Nc1nc(-c2ccc(OCc3ccccc3)cc2)cc(-c2nc3ccccc3c(=O)[nH]2)n1 | > 50 | 37.3 | < 25 |  |  | 
Nc1nc(-c2ccc(Br)cc2)cc(-c2nc3ccccc3c(=O)[nH]2)n1 | > 50 | 47.3 | < 25 |  |  | 
Cc1ccc(-c2cc(-c3nc4ccccc4c(=O)[nH]3)nc(N)n2)cc1 |  |  | < 25 |  |  | 
